From PubChem BioAssay (NCI)
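Following 48 hours of exposure in 96-well plates, responses at five concentrations were used to interpolate endpoints linearly. GI50 = concentration required for 50% inhibition of growth. TGI is the concentration that stops growth completely.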

How the values were obtained:
Assay in all cases: NCI tumour cell line growth inhibition, 48 h
SK-MEL-28 melanoma = tested on: SK-MEL-28 melanoma
HOP-92 NSCLC = tested on: HOP-92 NSCLC
T-47D breast = tested on: T-47D breast
NCI-H23 lung = tested on: NCI-H23 lung
SF-539 CNS = tested on: SF-539 CNS
HS 578T breast = tested on: HS 578T breast
IGROV1 ovarian = tested on: IGROV1 ovarian
BT-549 breast = tested on: BT-549 breast
SK-MEL-2 melanoma = tested on: SK-MEL-2 melanoma
ACHN renal = tested on: ACHN renal
SN12C renal = tested on: SN12C renal
SF-268 CNS = tested on: SF-268 CNS
SF-295 CNS = tested on: SF-295 CNS
MDA-MB-231 breast = tested on: MDA-MB-231 breast
A498 renal = tested on: A498 renal
M14 melanoma = tested on: M14 melanoma
NCI-H522 lung = tested on: NCI-H522 lung
U251 CNS = tested on: U251 CNS
UACC-62 melanoma = tested on: UACC-62 melanoma
OVCAR-3 ovarian = tested on: OVCAR-3 ovarian
HT29 colon = tested on: HT29 colon
OVCAR-8 ovarian = tested on: OVCAR-8 ovarian
A549 NSCLC = tested on: A549 NSCLC
RXF 393 renal = tested on: RXF 393 renal
PC-3 prostate = tested on: PC-3 prostate
CAKI-1 renal = tested on: CAKI-1 renal
MOLT-4 leukemia = tested on: MOLT-4 leukemia
NCI-H226 lung = tested on: NCI-H226 lung
SK-OV-3 ovarian = tested on: SK-OV-3 ovarian

Compound: O=CN/N=C/c1ccc(Cl)c([N+](=O)[O-])c1
- GI50 (SK-MEL-28 melanoma): 0.899 µM
- TGI (SK-MEL-28 melanoma): 24 µM
- GI50 (HOP-92 NSCLC): 1.24 µM
- TGI (HOP-92 NSCLC): 21.1 µM
- GI50 (T-47D breast): 2.92 µM
- TGI (T-47D breast): 51.7 µM
- GI50 (NCI-H23 lung): 0.396 µM
- TGI (NCI-H23 lung): 48.1 µM
- GI50 (SF-539 CNS): 0.309 µM
- TGI (SF-539 CNS): 13.7 µM
- GI50 (HS 578T breast): 9.41 µM
- TGI (HS 578T breast): 40.7 µM
- GI50 (IGROV1 ovarian): 0.0728 µM
- TGI (IGROV1 ovarian): 21.9 µM
- GI50 (BT-549 breast): 3.31 µM
- TGI (BT-549 breast): 20 µM
- GI50 (SK-MEL-2 melanoma): 5.43 µM
- TGI (SK-MEL-2 melanoma): 22.6 µM
- GI50 (ACHN renal): 5.17 µM
- TGI (ACHN renal): > 100 µM
- GI50 (SN12C renal): 0.503 µM
- TGI (SN12C renal): 21.9 µM
- GI50 (SF-268 CNS): 0.172 µM
- TGI (SF-268 CNS): 18.4 µM
- GI50 (SF-295 CNS): 0.623 µM
- TGI (SF-295 CNS): > 79.9 µM
- GI50 (MDA-MB-231 breast): 1.54 µM
- TGI (MDA-MB-231 breast): 27.3 µM
- GI50 (A498 renal): 2.14 µM
- TGI (A498 renal): 90.5 µM
- GI50 (M14 melanoma): 0.513 µM
- TGI (M14 melanoma): > 46.5 µM
- GI50 (NCI-H522 lung): 0.451 µM
- TGI (NCI-H522 lung): 19.9 µM
- GI50 (U251 CNS): 0.0617 µM
- TGI (U251 CNS): 25.8 µM
- GI50 (UACC-62 melanoma): 0.327 µM
- TGI (UACC-62 melanoma): 14.6 µM
- GI50 (OVCAR-3 ovarian): 0.555 µM
- TGI (OVCAR-3 ovarian): 20.7 µM
- GI50 (HT29 colon): 0.0457 µM
- TGI (HT29 colon): 14.4 µM
- GI50 (OVCAR-8 ovarian): 0.567 µM
- TGI (OVCAR-8 ovarian): > 100 µM
- GI50 (A549 NSCLC): 0.337 µM
- TGI (A549 NSCLC): > 100 µM
- GI50 (RXF 393 renal): 0.399 µM
- TGI (RXF 393 renal): > 100 µM
- GI50 (PC-3 prostate): 0.0249 µM
- TGI (PC-3 prostate): 13.2 µM
- GI50 (CAKI-1 renal): 4.04 µM
- TGI (CAKI-1 renal): > 100 µM
- GI50 (MOLT-4 leukemia): 0.577 µM
- TGI (MOLT-4 leukemia): 46.8 µM
- GI50 (NCI-H226 lung): 0.725 µM
- TGI (NCI-H226 lung): > 100 µM
- GI50 (SK-OV-3 ovarian): 7.33 µM
